According to ChEMBL document CHEMBL1649252, “Plasmodium falciparum drug resistance in Madagascar: facing the spread of unusual pfdhfr and pfmdr-1 haplotypes and the decrease of dihydroartemisinin susceptibility” (Antimicrob Agents Chemother, 2009):

Key:
Plasmodium falciparum [1] = experiment: Antimalarial activity against Plasmodium falciparum assessed as parasite growth inhibition after 48 hrs by [3H]hypoxanthin incorporation assay; format: functional, organism-based
Plasmodium falciparum [2] = experiment: Antimalarial activity against Plasmodium falciparum assessed as resistant isolates; format: functional

CCNCc1cc(Nc2ccnc3cc(Cl)ccc23)ccc1O [DESETHYL AMODIAQUINE]
IC50 (Plasmodium falciparum [1]): 8.3 nM | Activity (Plasmodium falciparum [2]): 0.5%

C=C[C@H]1CN2CC[C@H]1C[C@H]2[C@H](O)c1ccnc2ccc(OC)cc12 [QUININE]
IC50 (Plasmodium falciparum [1]): 53.7 nM | Activity (Plasmodium falciparum [2]): 0%

OC(c1cc(C(F)(F)F)nc2c(C(F)(F)F)cccc12)C1CCCCN1 (centres undefined) [MEFLOQUINE]
IC50 (Plasmodium falciparum [1]): 6.7 nM | Activity (Plasmodium falciparum [2]): 0.4%

C[C@H]1[C@@H](O)O[C@@H]2O[C@@]3(C)CC[C@H]4[C@H](C)CC[C@@H]1[C@@]24OO3 [ARTENIMOL]
IC50 (Plasmodium falciparum [1]): 0.95 nM | Activity (Plasmodium falciparum [2]): 0%

CCN(CC)CCCC(C)Nc1ccnc2cc(Cl)ccc12 (centres undefined) [CHLOROQUINE]
Activity (Plasmodium falciparum [2]): 3.2%
